According to patent publication US20030236202A1, “Natural products and derivatives thereof for protection against neurodegenerative diseases” (priority 2002, published 2003):

Tests used:
[1] = Binding of metal ions
[2] = Total antioxidant capacity of cerebrospinal fluid after oral administration; type: in vivo; conditions: rat, 100 mg oral, after 15 min
Experimental: Several rats were given 100 mg hydroxytyrosol by oral administration. After 15 min a small amount of cerebrospinal fluid was taken from the rat and analysed for the presence of hydroxytyrosol. Also the total antioxidant capacity in this fluid was measured and compared with a control. The detection of hydroxytyrosol was accomplished by gas chromatography and concentrations were determined by a standard curve. Hydroxytyrosol reached a concentration between 0.1 and 0.2 mM in cerebrospinal fluid after 15 minutes of oral administration. Moreover, the total antioxidant capacity of cerebrospinal fluid increased by 35% under these conditions as compared to a control.

[3] = target: T1, monoamine oxidase B (MAO-B) (Rattus norvegicus, UniProt P19643); experiment: Monoamine oxidase inhibition, purified mitochondria from rat brain tissue; type: biochemical; conditions: benzylamine (300 μM) as substrate
T1 construct: MAO-B enzyme activities were measured using purified mitochondria from rat brain tissue; from tissue; host or cells: purified mitochondria from rat brain tissue
T1 sequence (P19643 1-520): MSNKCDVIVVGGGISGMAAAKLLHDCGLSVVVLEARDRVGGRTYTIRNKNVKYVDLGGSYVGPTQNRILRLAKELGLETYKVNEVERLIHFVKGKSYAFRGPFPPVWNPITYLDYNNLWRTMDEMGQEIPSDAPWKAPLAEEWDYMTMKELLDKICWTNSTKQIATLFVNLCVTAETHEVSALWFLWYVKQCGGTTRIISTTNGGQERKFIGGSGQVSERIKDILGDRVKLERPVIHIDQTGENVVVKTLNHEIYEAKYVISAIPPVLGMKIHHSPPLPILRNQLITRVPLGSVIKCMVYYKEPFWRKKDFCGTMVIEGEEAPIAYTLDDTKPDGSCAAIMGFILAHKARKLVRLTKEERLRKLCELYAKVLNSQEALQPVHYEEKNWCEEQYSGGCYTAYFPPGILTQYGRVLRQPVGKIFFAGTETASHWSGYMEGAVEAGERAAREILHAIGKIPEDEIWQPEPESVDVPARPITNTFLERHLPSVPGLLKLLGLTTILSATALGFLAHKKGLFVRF
Experimental: We determined the IC50 of hydroxytyrosol for monoamine oxidase B (MAO-B). Therefore, MAO-B enzyme activities were measured using purified mitochondria from rat brain tissue as described previously (Holt et al. Anal. Biochem. 1997, 244, 384-392). Benzylamine (300 μM) was used as a substrate for MAO-B and the IC50 was calculated by adding different amounts of hydroxytyrosol to the enzyme assay.

[4] = test system: Beta-amyloid peptide (1-40); experiment: Prevention of metal-induced beta-amyloid precipitation (turbidometric assay); conditions: 25 μM compound, 10 μM beta-amyloid (1-40)
Experimental: Therefore, an experiment was performed to study its capacity to solubilize beta-amyloid peptide from insoluble aggregates. Beta-amyloid peptide (1-40) was brought to 10 μM in 150 mM NaCl, 50 mM HEPES (pH 7.4), and mixed with 10 μM CuCl2 or 10 μM FeCl3. Precipitation of beta-amyloid peptide by copper and iron was measured by a turbidometric assay (Huang et al. J. Biol. Chem. 1997, 272(42), 26464-70). Copper- and iron-induced turbidity was almost completely abolished (>90%) by the presence of 25 μM hydroxytyrosol.

[5] = test system: primary hippocampal cultures from rat; experiment: Neuroprotection: rescue of neuronal cells from neurotoxin-induced apoptosis; type: cell-based; conditions: 50 μM
Experimental: The capacity of two phenolic compounds to rescue neuronal cells from different kind of stressors was tested. To primary hippocampal cultures from rat, different neurotoxins (glutamate, hydrogen peroxide or beta-amyloid peptide) were added in such concentrations that in half of the cells apoptosis was induced. Then, together with the toxins, hydroxytyrosol or tyrosol were added in a final concentration of 50 μM, and the cells were incubated for 24 h. at 37° C. Subsequently, apoptosis was measured in the cell cultures and the number of cells that were protected by this treatment as compared to a control was calculated. […] Hydroxytyrosol protected around 60% of the cells against hydrogen peroxide, 35% against glutamate-induced neurotoxicity, and 45% against beta-amyloid induced apoptosis.

[6] = Compound in cerebrospinal fluid of rats after oral administration (gas chromatography); type: in vivo, rat; conditions: rats which had received tyrosol orally
[7] = 24 h at 37° C., toxin inducing apoptosis in half of the cells

## OCCc1ccc(O)c(O)c1 [Hydroxytyrosol, 2-(3,4-dihydroxyphenyl) ethanol]
[1]
  Binding of iron, zinc and copper ions (in words): high affinity
[2]
  Increase of total antioxidant capacity of cerebrospinal fluid as compared to a control: 35%
[3]
  IC50: 16.3 ± 1.3 µM
[4]; 10 μM CuCl2, pH 7.4
  Copper-induced turbidity abolished: > 90%
[4]; 10 μM FeCl3, pH 7.4
  Iron-induced turbidity abolished: > 90%
[5]; [7]
  Cells protected against beta-amyloid induced apoptosis: ~45%
  Cells protected against glutamate-induced neurotoxicity: ~35%
  Cells protected against hydrogen peroxide: around 60%

## OCCc1ccc(O)cc1 [Tyrosol, 2-(4-hydroxyphenyl) ethanol]
[6]
  Tyrosol in cerebrospinal fluid (in words): detected
[5]; 24 h, glutamate, hydrogen peroxide or beta-amyloid peptide
  Protection of cells from dying (in words): protected part of the cells from dying
